{"source": "paper PMC6008491", "about": "“Discovery of a novel allosteric inhibitor scaffold for polyadenosine-diphosphate-ribose polymerase 14 (PARP14) macrodomain 2” (Bioorganic & Medicinal Chemistry, 2018)", "key": {"PARP14 MD2 [1]": {"target": "T1, PARP14 MD2 (Homo sapiens, UniProt Q460N5)", "T1 sequence (Q460N5 1003-1190 limits assumed)": "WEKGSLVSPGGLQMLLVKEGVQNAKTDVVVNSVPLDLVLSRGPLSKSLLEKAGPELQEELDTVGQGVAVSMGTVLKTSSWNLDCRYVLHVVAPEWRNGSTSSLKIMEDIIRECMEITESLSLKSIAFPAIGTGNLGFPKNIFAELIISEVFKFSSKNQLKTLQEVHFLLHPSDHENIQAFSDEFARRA", "experiment": "Biophysical KD determination (Bio-Layer Interferometry or Isothermal Titration Calorimetry)", "assay_type": "binding", "set-up": "PARP14 MD2 (second MD of PARP14)", "source_text": "(§1) Compounds were profiled for binding activity with PARP14 MD2 through a competitive (AlphaScreen™) binding assay measuring the displacement of ADP-ribose peptide from PARP14 MD2.[11a]"}, "PARP14 MD2 [2]": {"target": "T1, PARP14 MD2", "experiment": "AlphaScreen competitive binding assay, displacement of ADP-ribose peptide from PARP14 MD2", "set-up": "PARP14 MD2 (second MD of PARP14)", "conditions": "AlphaScreen, PARP14 MD2, read-out: IC50", "source_text": "as §1"}, "PARP14 MD2 [3]": {"target": "T1, PARP14 MD2", "experiment": "BioLayer Interferometry (BLI)"}}, "note": "Where two headings read alike, the source gives them in different places."}
{"smiles": "CS(=O)(=O)Nc1cc(C#N)ccc1-c1cccc2c1[nH]c1ccccc12", "note": "[compound 56, N-(2-(9H-Carbazol-1-yl)-5-cyanophenyl)methanesulfonamide]", "values": [{"measurement": "Kd", "setting": "PARP14 MD2 [1]; Table 1, BLI or ITC", "value": "5200 ± 1700", "unit": "nM"}]}
{"smiles": "CC(=O)Nc1cccc(C)c1-c1cccc2c1[nH]c1ccccc12", "note": "[compound 57, N-(2-(9H-Carbazol-1-yl)-3-methylphenyl)acetamide]", "values": [{"measurement": "IC50", "setting": "PARP14 MD2 [2]; Table 1", "value": "1700 ± 100", "unit": "nM"}, {"measurement": "Kd", "setting": "PARP14 MD2 [1]; Table 1, BLI or ITC", "value": "1600 ± 700", "unit": "nM"}]}
{"smiles": "O=C(Cc1cccnc1)Nc1ccccc1-c1cccc2c1[nH]c1ccccc12", "note": "[compound 83, N-(2-(9H-Carbazol-1-yl)phenyl)-2-(pyridin-3-yl)acetamide]", "values": [{"measurement": "IC50", "setting": "PARP14 MD2 [2]; Table 2", "value": 1100, "unit": "nM"}, {"measurement": "Kd", "setting": "PARP14 MD2 [1]; Table 2, BLI or ITC", "value": 1500, "unit": "nM"}]}
{"smiles": "Cc1ccc(CC(=O)Nc2ccccc2-c2cccc3c2[nH]c2ccccc23)cn1", "note": "[compound 84, N-(2-(9H-Carbazol-1-yl)phenyl)-2-(6-methylpyridin-3-yl)acetamide]", "values": [{"measurement": "IC50", "setting": "PARP14 MD2 [2]; Table 2", "value": 1000, "unit": "nM"}, {"measurement": "Kd", "setting": "PARP14 MD2 [1]; Table 2, BLI or ITC", "value": 2700, "unit": "nM"}]}
{"smiles": "O=C(Cc1cnccn1)Nc1ccccc1-c1cccc2c1[nH]c1ccccc12", "note": "[compound 85, N-(2-(9H-Carbazol-1-yl)phenyl)-2-(pyrazin-2-yl)acetamide]", "values": [{"measurement": "IC50", "setting": "PARP14 MD2 [2]; Table 2", "value": "2100 ± 100", "unit": "nM"}, {"measurement": "Kd", "setting": "PARP14 MD2 [1]; Table 2, BLI or ITC", "value": 3900, "unit": "nM"}]}
{"smiles": "O=C(Cc1ccc(=O)[nH]c1)Nc1ccccc1-c1cccc2c1[nH]c1ccccc12", "note": "[compound 88, N-(2-(9H-Carbazol-1-yl)phenyl)-2-(6-oxo-1,6-dihydropyridin-3-yl)acetamide]", "values": [{"measurement": "IC50", "setting": "PARP14 MD2 [2]; Table 2", "value": "6600 ± 400", "unit": "nM"}]}
{"smiles": "O=S(=O)(Cc1ccccc1F)Nc1ccccc1-c1cccc2c1[nH]c1ccccc12", "note": "[compound 89, N-(2-(9H-Carbazol-1-yl)phenyl)-1-(2-fluorophenyl)methanesulfonamide]", "values": [{"measurement": "IC50", "setting": "PARP14 MD2 [2]; Table 2", "value": "2400 ± 100", "unit": "nM"}]}
{"smiles": "O=C(Cc1ccccc1F)Nc1ccccc1-c1cccc2c1[nH]c1ccccc12", "note": "[compound 90, N-(2-(9H-Carbazol-1-yl)phenyl)-2-(2-fluorophenyl)acetamide]", "values": [{"measurement": "IC50", "setting": "PARP14 MD2 [2]; Table 2", "value": "2800 ± 200", "unit": "nM"}]}
{"smiles": "O=C(Cc1ccccc1Cl)Nc1ccccc1-c1cccc2c1[nH]c1ccccc12", "note": "[compound 91, N-(2-(9H-Carbazol-1-yl)phenyl)-2-(2-chlorophenyl)acetamide]", "values": [{"measurement": "IC50", "setting": "PARP14 MD2 [2]; Table 2", "value": "4400 ± 300", "unit": "nM"}]}
{"smiles": "Cc1ccc(CC(=O)Nc2ccccc2-c2cccc3c2[nH]c2ccccc23)cc1", "note": "[compound 92, N-(2-(9H-Carbazol-1-yl)phenyl)-2-(p-tolyl)acetamide]", "values": [{"measurement": "IC50", "setting": "PARP14 MD2 [2]; Table 2", "value": "8700 ± 1200", "unit": "nM"}]}
{"smiles": "O=C(Cc1ccc(F)cc1)Nc1ccccc1-c1cccc2c1[nH]c1ccccc12", "note": "[compound 93, N-(2-(9H-Carbazol-1-yl)phenyl)-2-(4-fluorophenyl)acetamide]", "values": [{"measurement": "IC50", "setting": "PARP14 MD2 [2]; Table 2", "value": "> 50000", "unit": "nM"}]}
{"smiles": "COc1ccc(CC(=O)Nc2ccccc2-c2cccc3c2[nH]c2ccccc23)cc1", "note": "[compound 94, N-(2-(9H-Carbazol-1-yl)phenyl)-2-(4-methoxyphenyl)acetamide]", "values": [{"measurement": "IC50", "setting": "PARP14 MD2 [2]; Table 2", "value": "6200 ± 600", "unit": "nM"}]}
{"smiles": "N#Cc1ccc(CS(=O)(=O)Nc2ccccc2-c2cccc3c2[nH]c2ccccc23)cc1", "note": "[compound 95, N-(2-(9H-Carbazol-1-yl)phenyl)-1-(4-cyanophenyl)methanesulfonamide]", "values": [{"measurement": "IC50", "setting": "PARP14 MD2 [2]; Table 2", "value": "6200 ± 600", "unit": "nM"}]}
{"smiles": "O=C(Cc1ccc(Cl)cc1)Nc1ccccc1-c1cccc2c1[nH]c1ccccc12", "note": "[compound 96, N-(2-(9H-Carbazol-1-yl)phenyl)-2-(4-chlorophenyl)acetamide]", "values": [{"measurement": "IC50", "setting": "PARP14 MD2 [2]; Table 2", "value": "6200 ± 600", "unit": "nM"}]}
{"smiles": "O=S(=O)(Cc1ccc(C(F)(F)F)cc1)Nc1ccccc1-c1cccc2c1[nH]c1ccccc12", "note": "[compound 97, N-(2-(9H-Carbazol-1-yl)phenyl)-1-(4-(trifluoromethyl)phenyl)methanesulfonamide]", "values": [{"measurement": "IC50", "setting": "PARP14 MD2 [2]; Table 2", "value": "8100 ± 700", "unit": "nM"}]}
{"smiles": "COc1ccc(CC(=O)Nc2ccccc2-c2cccc3c2[nH]c2ccccc23)cc1OC", "note": "[compound 98, N-(2-(9H-Carbazol-1-yl)phenyl)-2-(3,4-dimethoxyphenyl)acetamide]", "values": [{"measurement": "IC50", "setting": "PARP14 MD2 [2]; Table 2", "value": "4300 ± 300", "unit": "nM"}]}
{"smiles": "O=C(Cc1ccc2c(c1)OCO2)Nc1ccccc1-c1cccc2c1[nH]c1ccccc12", "note": "[compound 99, N-(2-(9H-Carbazol-1-yl)phenyl)-2-(benzo[d][1,3]dioxol-5-yl)acetamide]", "values": [{"measurement": "IC50", "setting": "PARP14 MD2 [2]; Table 2", "value": "6900 ± 600", "unit": "nM"}]}
{"smiles": "N#Cc1ccc(F)c(CS(=O)(=O)Nc2ccccc2-c2cccc3c2[nH]c2ccccc23)c1", "note": "[compound 100, N-(2-(9H-Carbazol-1-yl)phenyl)-1-(5-cyano-2-fluorophenyl)methanesulfonamide]", "values": [{"measurement": "IC50", "setting": "PARP14 MD2 [2]; Table 2", "value": 1200, "unit": "nM"}, {"measurement": "Kd", "setting": "PARP14 MD2 [1]; Table 2, BLI or ITC", "value": 1300, "unit": "nM"}]}
{"smiles": "Cc1ccc(C)c(CC(=O)Nc2ccccc2-c2cccc3c2[nH]c2ccccc23)c1", "note": "[compound 101, N-(2-(9H-Carbazol-1-yl)phenyl)-2-(2,5-dimethylphenyl)acetamide]", "values": [{"measurement": "IC50", "setting": "PARP14 MD2 [2]; Table 2", "value": "44600 ± 10400", "unit": "nM"}]}
{"smiles": "O=C(Cc1ccc(Cl)c(Cl)c1)Nc1ccccc1-c1cccc2c1[nH]c1ccccc12", "note": "[compound 102, N-(2-(9H-Carbazol-1-yl)phenyl)-2-(3,4-dichlorophenyl)acetamide]", "values": [{"measurement": "IC50", "setting": "PARP14 MD2 [2]; Table 2", "value": "6300 ± 600", "unit": "nM"}]}
{"smiles": "COc1cccc(CC(=O)Nc2ccccc2-c2cccc3c2[nH]c2ccccc23)c1", "note": "[compound 103, N-(2-(9H-Carbazol-1-yl)phenyl)-2-(3-methoxyphenyl)acetamide]", "values": [{"measurement": "IC50", "setting": "PARP14 MD2 [2]; Table 2", "value": "6600 ± 500", "unit": "nM"}]}
{"smiles": "O=C(Cc1cccc(F)c1)Nc1ccccc1-c1cccc2c1[nH]c1ccccc12", "note": "[compound 104, N-(2-(9H-Carbazol-1-yl)phenyl)-2-(3-fluorophenyl)acetamide]", "values": [{"measurement": "IC50", "setting": "PARP14 MD2 [2]; Table 2", "value": "4200 ± 300", "unit": "nM"}]}
{"smiles": "O=S(=O)(Cc1cccc(F)c1)Nc1ccccc1-c1cccc2c1[nH]c1ccccc12", "note": "[compound 105, N-(2-(9H-Carbazol-1-yl)phenyl)-1-(3-fluorophenyl)methanesulfonamide]", "values": [{"measurement": "IC50", "setting": "PARP14 MD2 [2]; Table 2", "value": "1400 ± 100", "unit": "nM"}]}
{"smiles": "O=C(Cc1cccc(C(F)(F)F)c1)Nc1ccccc1-c1cccc2c1[nH]c1ccccc12", "note": "[compound 106, N-(2-(9H-Carbazol-1-yl)phenyl)-2-(3-(trifluoromethyl)phenyl)acetamide]", "values": [{"measurement": "IC50", "setting": "PARP14 MD2 [2]; Table 2", "value": "7100 ± 700", "unit": "nM"}]}
{"smiles": "N#Cc1cccc(CC(=O)Nc2ccccc2-c2cccc3c2[nH]c2ccccc23)c1", "note": "[compound 107, N-(2-(9H-Carbazol-1-yl)phenyl)-2-(3-cyanophenyl)acetamide]", "values": [{"measurement": "IC50", "setting": "PARP14 MD2 [2]; Table 2", "value": "2100 ± 100", "unit": "nM"}]}
{"smiles": "N#Cc1cccc(CS(=O)(=O)Nc2ccccc2-c2cccc3c2[nH]c2ccccc23)c1", "note": "[compound 108, N-(2-(9H-Carbazol-1-yl)phenyl)-1-(3-cyanophenyl)methanesulfonamide]", "values": [{"measurement": "Kd", "setting": "PARP14 MD2 [3]; read-out: KD (BLI)", "value": 550, "unit": "nM"}, {"measurement": "Kd", "setting": "PARP14 MD2 [3]; read-out: calculated KD (BLI)", "value": 550, "unit": "nM"}, {"measurement": "IC50", "setting": "PARP14 MD2 [2]; Table 2", "value": "660 ± 30", "unit": "nM"}, {"measurement": "Kd", "setting": "PARP14 MD2 [1]; Table 2, BLI or ITC", "value": 550, "unit": "nM"}]}
